Each molecule was assayed on HCV replicon Luc Neo ET (assay: HCV replication inhibition assay (replicon assay, luciferase reporter)). Details: Hepatitis C virus; Huh-7 cell lines containing HCV replicon Luc Neo ET; 72 hours with compound; 1 % DMSO; firefly luciferase reporter; concentration that produces 50 % of replication inhibition; read-out: EC50 Replicon LucneoET.
Type: cell-based
Description: The compounds according to the present invention were tested for their ability to inhibit HCV replication as follows:
Huh-7 cell lines containing HCV replicon Luc Neo ET (Reblikon) were maintained in DMEM supplemented with 10% SVF, 2 mM glutamine, and 1 X NEAA, 100 U / ml penicillin, and 100 µg / ml streptomycine. Cells were maintained in medium supplemented with 0.5 mg/ml G418, at 37°C and 5% CO2 in a humidified atmosphere. Cells were dissociated at sub confluence with trypsin EDTA 1X.
Replicon Luc Neo ET is bicistronic expression constructs (Lohmann et al, 1999, Science 285, 110-113). In brief, the structural genes of the HCV genome were replaced by heterologous sequences; the gene encoding the neomycin phosphotransferase (NPT) and the internal ribosome entry site (IRES) of the encephalomyocarditis virus (EMCV). The bicistronic construct is therefore composed of the following elements: HCV-IRES nucleotides 1-389 for Luc Neo ET, the NPT gene, the EMCV-IRES directing translation of downstream HCV sequences from NS2 or NS3 up to the authentic 3' end of the genome. HCV Polyprotein of Luc Neo ET replicon harbours the cell culture adaptive mutations E1202G, T1280I, K1846T. G418-resistance is only possible with cells containing high amounts of replicon.
Cells were dissociated the day before addition of compounds and seeded in 96 well-plates at a final concentration of 27 777.77 cells.ml^-1.cm^-2 in 90µl final volume of culture medium per well and were maintained at 37°C and 5% CO2 in a humidified atmosphere for 24 hours. 10 µl of compounds to be tested were added 24 hours after seeding. Final concentration of DMSO was 1 %. Cells were incubated in the presence of compounds for 72 hours after which expression of firefly luciferase reporter gene was quantified. Briefly, culture medium was removed and cells were lysed by addition of 100 µl of lysis buffer containing 125 mM Tris Phosphate ph 7.8, 10 mM EDTA, 5 mM DTT, 50 % glycerol and 5 % Triton. Plates were vortexed 10 min at 1300 rpm. 100µl of luciferin solution 1X were added to each well. Luciferin solution contained 40 mM Tris Phosphate ph 7.8, 0.2 mM EDTA, 67 mM DTT, 2.14 mM MgCl2, 5.4 mM MgSO4, 4.7 x 10^-4 M luciferin, 5.3 x 10^-4 M ATP and 2.7 x 10^-4 M Acetyl co enzyme A. Luminescence was immediately measured with Berthold Microlumat Plus LB 96V luminometer with an integration of 1 sec. Inhibition was calculated using the formula: % inhibition = 1-[(RLUsample-RLUbackground)/(RLUsignal-RLUbackground)].
The Table 1 below illustrates data on the biological activity of compounds of the present invention. Results are expressed as EC50 which is the concentration that produces 50 % of replication inhibition. Table 1. HCV replication inhibition assay

| Molecule | EC50 |
| --- | --- |
| COc1ccc(CCN2C(=S)N(c3ccc(F)cc3)C(=O)C2CC(=O)Nc2ccc(N3CCCC3=O)cc2)cc1 (stereo not drawn) [Example 87, 2-[1-(4-fluorophenyl)-3-[2-(4-methoxyphenyl)ethyl]-5-oxo-2-sulfanylideneimidazolidin-4-yl]-N-[4-(2-oxopyrrolidin-1-yl)phenyl]acetamide] | < 5000 nM |
| COc1ccc(CCN2C(=S)N(c3ccc(F)cc3)C(=O)C2CC(=O)Nc2ncc(OC)s2)cc1 (stereo not drawn) [Example 88, 2-[1-(4-Fluorophenyl)-3-[2-(4-methoxyphenyl)ethyl]-5-oxo-2-sulfanylideneimidazolidin-4-yl]-N-(5-methoxy-1,3-thiazol-2-yl)acetamide] | < 500 nM |
| COc1ccc(CCN2C(=S)N(c3ccccc3)C(=O)/C2=C\C(=O)Nc2ccc(N(C)C)cc2)cc1 [Example 90, N-[4-(dimethylamino)phenyl]-2-[(4E)-3-[2-(4-methoxyphenyl)ethyl]-5-oxo-1-phenyl-2-sulfanylideneimidazolidin-4-ylidene]acetamide] | < 500 nM |
| COc1ccc(CCN2C(=S)N(c3ccc(F)cc3)C(=O)C2CC(=O)Nc2ccc(O)cc2)cc1 (stereo not drawn) [Example 91, 2-[1-(4-fluorophenyl)-3-[2-(4-methoxyphenyl)ethyl]-5-oxo-2-sulfanylideneimidazolidin-4-yl]-N-(4-hydroxyphenyl)acetamide] | < 500 nM |
| COc1ccc(CCCN2C(=S)N(c3ccc(F)cc3)C(=O)C2CC(=O)Nc2ccc(OC)cn2)cc1 (stereo not drawn) [Example 92, 2-[1-(4-fluorophenyl)-3-[3-(4-methoxyphenyl)propyl]-5-oxo-2-sulfanylideneimidazolidin-4-yl]-N-(5-methoxypyridin-2-yl)acetamide] | < 500 nM |
| COc1ccc(CCCCN2C(=S)N(c3ccc(F)cc3)C(=O)C2CC(=O)Nc2ccc(OC)cn2)cc1 (stereo not drawn) [Example 93, 2-[1-(4-fluorophenyl)-3-[4-(4-methoxyphenyl)butyl]-5-oxo-2-sulfanylideneimidazolidin-4-yl]-N-(5-methoxypyridin-2-yl)acetamide] | < 500 nM |

Same assay, conditions: Huh-7 cell lines containing HCV replicon Luc Neo ET; 72 hours with compound; 1 % DMSO; firefly luciferase reporter; concentration that produces 50 % of replication inhibition

| Molecule | EC50 Replicon LucneoET |
| --- | --- |
| COc1ccc(/C=C\N2C(=S)N(c3ccc(F)cc3)C(=O)C2CC(=O)Nc2ccc(OC)cn2)cc1 (stereo not drawn) [Example 89, 2-[1-(4-Fluorophenyl)-3-[(Z)-2-(4-methoxyphenyl)ethenyl]-5-oxo-2-sulfanylideneimidazolidin-4-yl]-N-(5-methoxypyridin-2-yl)acetamide] | Non Active |

Same assay, conditions: Huh-7 cell lines containing HCV replicon Luc Neo ET; 72 hours with compound; 1 % DMSO; firefly luciferase reporter; concentration that produces 50 % of replication inhibition; read-out: EC50 Replicon LucneoET

| Molecule | EC50 |
| --- | --- |
| COc1ccc(/C=C/N2C(=S)N(c3ccc(F)cc3)C(=O)C2CC(=O)Nc2ccc(OC)cn2)cc1 (stereo not drawn) [Example 95] | < 500 nM |
| COc1ccc(CCN2C(=S)N(c3ccc(F)cc3)C(=O)C2CC(=O)Nc2c(F)cc(OC)cc2F)cc1 (stereo not drawn) [Example 97] | < 500 nM |
| COc1ccc(NC(=O)CC2C(=O)N(c3ccc(F)cc3)C(=S)N2CCc2ccc(OCCNC(=O)OC(C)(C)C)cc2)nc1 (stereo not drawn) [Example 98] | < 500 nM |
| N-[4-(dimethylamino)phenyl]-2-[1-(4-fluorophenyl)-4-hydroxy-3-[2-(4-methoxyphenyl)ethyl]-5-oxo-2-sulfanylideneimidazolidin-4-yl]acetamide [Example 77] | < 500 nM |
| N-[4-(dimethylamino)phenyl]-2-{4-hydroxy-3-[2-(4-methoxyphenyl)ethyl]-5-oxo-1-phenyl-2-sulfanylideneimidazolidin-4-yl}acetamide [Example 70] | < 500 nM |

Reference: patent EP2664616A1, “Hydantoin and thiohydantoin derivatives as antiviral drugs” (priority 2012, dated 2013)
